Tested on: 496974-208-R-J2-PDC complex spheroids, growth % test/control
Assay: Anticancer human tumor 496974-208-R-J2-PDC patient-derived pancreatic carcinoma cell line growth inhibition [CLK]
Details: for IC50: curve of first compound; for viability, T/C: stronger effect = lower value; active = viability on the fitted dose curve at most 10% of control; inactive = the rest
Method in brief: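 Patient-derived tumor cells grown as complex spheroids with HUVEC endothelial cells and mesenchymal stem cells, treated with drug combinations. Concentrations descend in half-log steps from near clinical Cmax, or from 10 microM if Cmax unknown.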

[1] = second compound 0.0316 µM, first compound 0.0316 µM
[2] = second compound 0.0316 µM, first compound 0.1 µM
[3] = second compound 0.0316 µM, first compound 0.316 µM
[4] = second compound 0.0316 µM, first compound 1 µM
[5] = second compound 0.0316 µM, first compound 3.16 µM
[6] = second compound 0.0316 µM, first compound 10 µM
[7] = second compound 0.1 µM, first compound 0.0316 µM
[8] = second compound 0.1 µM, first compound 0.1 µM
[9] = second compound 0.1 µM, first compound 0.316 µM
[10] = second compound 0.1 µM, first compound 1 µM
[11] = second compound 0.1 µM, first compound 3.16 µM
[12] = second compound 0.1 µM, first compound 10 µM
[13] = second compound 0.316 µM, first compound 0.0316 µM
[14] = second compound 0.316 µM, first compound 0.1 µM
[15] = second compound 0.316 µM, first compound 0.316 µM
[16] = second compound 0.316 µM, first compound 1 µM
[17] = second compound 0.316 µM, first compound 3.16 µM
[18] = second compound 0.316 µM, first compound 10 µM
[19] = second compound 1 µM, first compound 0.0316 µM
[20] = second compound 1 µM, first compound 0.1 µM
[21] = second compound 1 µM, first compound 0.316 µM
[22] = second compound 1 µM, first compound 1 µM
[23] = second compound 1 µM, first compound 3.16 µM
[24] = second compound 1 µM, first compound 10 µM
[25] = second compound 3.16 µM, first compound 0.0316 µM
[26] = second compound 3.16 µM, first compound 0.1 µM
[27] = second compound 3.16 µM, first compound 0.316 µM
[28] = second compound 3.16 µM, first compound 1 µM
[29] = second compound 3.16 µM, first compound 3.16 µM
[30] = second compound 3.16 µM, first compound 10 µM
[31] = second compound 10 µM, first compound 0.0316 µM
[32] = second compound 10 µM, first compound 0.1 µM
[33] = second compound 10 µM, first compound 0.316 µM
[34] = second compound 10 µM, first compound 1 µM
[35] = second compound 10 µM, first compound 3.16 µM
[36] = second compound 10 µM, first compound 10 µM
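Also: spheroids exposed to the drugs for 7 days before readout.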
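For viability, T/C in this document: 100% = DMSO vehicle control wells.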

COc1ccc([C@@H](O)c2cc(-c3ncnc4cc(N5CCOCC5)ccc34)c(F)cc2Cl)nn1 + CNC(=O)c1ccc(Nc2nc(OC3CCCC3)c3c(-c4ccc5nc(C)oc5c4)c[nH]c3n2)c(OC)c1
1710 nM: IC50 (second compound 1 µM)
7280 nM: IC50 (second compound 0.0316 µM)
inactive: viability, T/C [1] 102% | viability, T/C [2] 88.6% | viability, T/C [3] 89.4% | viability, T/C [4] 88.7% | viability, T/C [5] 76.1% | viability, T/C [6] 40.1% | viability, T/C [7] 78.5% | viability, T/C [8] 75.8% | viability, T/C [9] 83.9% | viability, T/C [10] 75.9% | viability, T/C [11] 62.3% | viability, T/C [12] 41.1% | viability, T/C [13] 71% | viability, T/C [14] 85.1% | viability, T/C [15] 68.9% | viability, T/C [16] 67.1% | viability, T/C [17] 46.5% | viability, T/C [18] 20.4% | viability, T/C [19] 72% | viability, T/C [20] 64.2% | viability, T/C [21] 65.1% | viability, T/C [22] 58.1% | viability, T/C [23] 41.6% | viability, T/C [24] 23.2% | viability, T/C [25] 62.9% | viability, T/C [26] 68% | viability, T/C [27] 59.5% | viability, T/C [28] 56.3% | viability, T/C [29] 35.6% | viability, T/C [30] 17.9% | viability, T/C [31] 59.7% | viability, T/C [32] 55.8% | viability, T/C [33] 50.2% | viability, T/C [34] 42.9% | viability, T/C [35] 27.3% | viability, T/C [36] 14.2%
2600 nM: IC50 (second compound 0.316 µM)
1360 nM: IC50 (second compound 3.16 µM)
306 nM: IC50 (second compound 10 µM)
6160 nM: IC50 (second compound 0.1 µM)

COc1cccc2c1C(=O)c1c(O)c3c(c(O)c1C2=O)CC(O)(C(=O)CO)CC3OC1CC(N)C(O)C(C)O1 (centres undefined) + CNC(=O)c1ccc(Nc2nc(OC3CCCC3)c3c(-c4ccc5nc(C)oc5c4)c[nH]c3n2)c(OC)c1
103 nM: IC50 (second compound 3.16 µM)
inactive: viability, T/C [1] 70.4% | viability, T/C [2] 62.2% | viability, T/C [3] 38.3% | viability, T/C [7] 67.5% | viability, T/C [8] 66.1% | viability, T/C [9] 33.8% | viability, T/C [13] 68% | viability, T/C [14] 68.3% | viability, T/C [15] 36.2% | viability, T/C [19] 68% | viability, T/C [20] 52.9% | viability, T/C [21] 22.5% | viability, T/C [25] 57.9% | viability, T/C [26] 50.7% | viability, T/C [27] 18.4% | viability, T/C [31] 57.8% | viability, T/C [32] 40.5% | viability, T/C [33] 16.8%
177 nM: IC50 (second compound 0.1 µM)
active: viability, T/C [4] 3.78% | viability, T/C [5] 0.62% | viability, T/C [6] 0.49% | viability, T/C [10] 3.28% | viability, T/C [11] 0.77% | viability, T/C [12] 2.66% | viability, T/C [16] 3.12% | viability, T/C [17] 0.68% | viability, T/C [18] 0.3% | viability, T/C [22] 1.15% | viability, T/C [23] 2.86% | viability, T/C [24] 3.97% | viability, T/C [28] 1.62% | viability, T/C [29] 0.55% | viability, T/C [30] 0.42% | viability, T/C [34] 1.34% | viability, T/C [35] 0.84% | viability, T/C [36] 0.85%
191 nM: IC50 (second compound 0.316 µM)
115 nM: IC50 (second compound 1 µM)
185 nM: IC50 (second compound 0.0316 µM)
53.6 nM: IC50 (second compound 10 µM)

Reference: PubChem BioAssay AID2060615 (Molecular Pharmacology Branch, DTP, NCI, 2025)
